According to patent EP0232893A2, “Antibiotics of the streptogramine type, a microbiological process for their preparation and their use as medicaments and food additives” (HOECHST AKTIENGESELLSCHAFT, priority 1986, dated 1987):
*1 amine or outer side, *2 acyl side, *3 side chain or, on linkers, in order; H or OH if unused. Where a SMILES comes first, the peptide text is derived from it. Bridges are numbered along the chain shown (N, C = ends). [ ]: non-standard residue; d: D form. The star is where a group is joined. X1 = CC(C)[C@H](C)[C@@H](C(=O)[*:2])N(C)[*:1]; d(cisHyp) = O=C(O)[C@H]1C[C@@H](O)CN1; Picolinoyl(3-OH) = O=C(c1ncccc1O)*; NMePhg = CN[C@H](C(=O)O)c1ccccc1; Sar = CNCC(=O)O

Assay: Feeding trials in animals, growth promotion
Type: in vivo, Mastgeflügel, Schweinen, Mastrindern, Schafen und Kaninchen
Conditions: e.g. fattening poultry, pigs, fattening cattle, sheep, rabbits
From the text: Dies gilt auch für die einzelnen Komponenten, insbesondere für das Neoviridogrisein IV, für das ein wachstumsfördernder -Effekt bisher nicht beschrieben war. Auch die Legeleistung von Geflügel, insbesondere das Eigewicht und die Milchleistung von Milchkühen, -schafen und -ziegen wird durch den Antibiotikakomplex oder seine einzelnen Komponenten positiv beeinflußt.
Zur Erzielung des Effekts verwendet man Konzentrationen von 2 - 100 ppm, vorzugsweise 2 - 50 ppm, insbesondere 5 - 20 ppm, bezogen auf Alleinfutter. Entsprechend höher sind die Konzentrationen, wenn die Antibiotika als Zusatz zu Beifutter verabreicht werden.

CC(C)C[C@H]1NC(=O)[C@@H](NC(=O)c2ncccc2O)[C@@H](C)OC(=O)[C@H](c2ccccc2)N(C)C(=O)[C@H](C)NC(=O)[C@H]([C@@H](C)C(C)C)N(C)C(=O)CN(C)C(=O)[C@H]2C[C@@H](O)CN2C1=O [Neoviridogrisein IV] ({Picolinoyl(3-OH)}-T[dL][d(cisHyp)][Sar][X1]A[NMePhg]; ester 1-C)
wachstumsfördernde Wirkung: ausgeprägte wachstumsfördernde Wirkung
